Toxic doses and inconclusive results are not listed. Rule as the data show it: active = T/C of 150% or more; inactive = T/C below 125%.
System: L1210 leukemia ip in BDF1 mice, survival T/C
Assay: NCI In Vivo Anticancer Drug Screen. Data for tumor model L1210 Leukemia (intraperitoneal) in B6D2F1 (BDF1) mice
Conditions: endpoint: mean survival time, higher = longer survival
Method in brief: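 Each compound was tested against a transplantable tumor grown in mice. The endpoint was survival, with treated animals benchmarked against vehicle controls as a simple ratio.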

[1] = dose: 100.0 mg/kg/injection, schedule: Q01DX009 (ip), vehicle: Klucel (hydroxypropylcellulose) (HPC)
[2] = dose: 100.0 mg/kg/injection, schedule: Q04DX003 (ip), vehicle: Klucel (hydroxypropylcellulose) (HPC)
[3] = dose: 200.0 mg/kg/injection, schedule: Q01DX009 (ip), vehicle: Klucel (hydroxypropylcellulose) (HPC)
[4] = dose: 400.0 mg/kg/injection, schedule: Q04DX003 (ip), vehicle: Klucel (hydroxypropylcellulose) (HPC)
[5] = dose: 75.0 mg/kg/injection, schedule: Q01DX001 (ip), vehicle: saline
[6] = dose: 150.0 mg/kg/injection, schedule: Q01DX001 (ip), vehicle: saline
[7] = dose: 300.0 mg/kg/injection, schedule: Q01DX001 (ip), vehicle: saline
[8] = dose: 100.0 mg/kg/injection, schedule: Q01DX009 (ip), vehicle: saline with Tween-80
[9] = dose: 200.0 mg/kg/injection, schedule: Q01DX009 (ip), vehicle: saline with Tween-80
[10] = dose: 200.0 mg/kg/injection, schedule: Q04DX003 (ip), vehicle: Klucel (hydroxypropylcellulose) (HPC)
[11] = dose: 100.0 mg/kg/injection, schedule: Q04DX003 (ip), vehicle: saline
[12] = dose: 200.0 mg/kg/injection, schedule: Q04DX003 (ip), vehicle: saline

Measured: T/C

CC(=O)OCC(=O)C1(O)C(C)CC2C3C=C(C)C4=Cc5c(cnn5-c5ccccc5)CC4(C)C3C(O)CC21C (stereo not drawn)
inactive: dose: 8.0 mg/kg/injection, schedule: Q01DX001 (sc), vehicle: steriod suspending solution 110 % of control | dose: 16.0 mg/kg/injection, schedule: Q01DX001 (sc), vehicle: steriod suspending solution 105 % of control | dose: 32.0 mg/kg/injection, schedule: Q01DX001 (sc), vehicle: steriod suspending solution 113 % of control | dose: 45.0 mg/kg/injection, schedule: Q01DX001 (sc), vehicle: steriod suspending solution 106 % of control | dose: 70.0 mg/kg/injection, schedule: Q01DX001 (sc), vehicle: steriod suspending solution 89 % of control | dose: 105.0 mg/kg/injection, schedule: Q01DX001 (sc), vehicle: steriod suspending solution 95 % of control | dose: 160.0 mg/kg/injection, schedule: Q01DX001 (sc), vehicle: steriod suspending solution 98 % of control | dose: 240.0 mg/kg/injection, schedule: Q01DX001 (sc), vehicle: steriod suspending solution 110 % of control | dose: 360.0 mg/kg/injection, schedule: Q01DX001 (sc), vehicle: steriod suspending solution 93 % of control

S=P(c1ccccc1)(N1CCN(c2ccc(Cl)cc2)CC1)N1CCN(c2ccc(Cl)cc2)CC1
inactive: dose: 100.0 mg/kg/injection, schedule: Q01DX001 (ip), vehicle: saline 88 % of control | [1] 102 % of control | [2] 95 % of control | [3] 91 % of control | dose: 400.0 mg/kg/injection, schedule: Q01DX001 (ip), vehicle: saline 90 % of control | dose: 400.0 mg/kg/injection, schedule: Q01DX009 (ip), vehicle: Klucel (hydroxypropylcellulose) (HPC) 93 % of control | [4] 92 % of control

CCOC(=O)c1ccc(Nc2nnc(-c3ccc(OC)cc3OC)s2)cc1
inactive: dose: 100.0 mg/kg/injection, schedule: Q04DX002 (ip), vehicle: saline with Tween-80 104 % of control | dose: 200.0 mg/kg/injection, schedule: Q04DX002 (ip), vehicle: saline with Tween-80 104 % of control | dose: 400.0 mg/kg/injection, schedule: Q04DX002 (ip), vehicle: saline with Tween-80 101 % of control

Clc1ccc(/C=C/c2nc(Cl)c(-c3ccc(Cl)cc3)c(Cl)n2)cc1
inactive: [5] 105 % of control | [6] 92 % of control | dose: 150.0 mg/kg/injection, schedule: Q04DX003 (ip), vehicle: Klucel (hydroxypropylcellulose) (HPC) 113 % of control | [7] 97 % of control | dose: 300.0 mg/kg/injection, schedule: Q04DX003 (ip), vehicle: Klucel (hydroxypropylcellulose) (HPC) 92 % of control

COc1ccc(CC(Cc2ccc(OC)c(OC)c2)NC=O)cc1OC
inactive: [8] 95 % of control | [9] 97 % of control | dose: 400.0 mg/kg/injection, schedule: Q01DX009 (ip), vehicle: saline with Tween-80 100 % of control

CNc1ccc(S(=O)(=O)c2ccc(NC)c([N+](=O)[O-])c2)cc1[N+](=O)[O-]
inactive: dose: 100.0 mg/kg/injection, schedule: Q01DX005 (ip), vehicle: gum acacia 93 % of control | dose: 100.0 mg/kg/injection, schedule: Q01DX009 (ip), vehicle: gum acacia 94 % of control | dose: 200.0 mg/kg/injection, schedule: Q01DX005 (ip), vehicle: gum acacia 93 % of control | dose: 200.0 mg/kg/injection, schedule: Q01DX009 (ip), vehicle: gum acacia 87 % of control | dose: 400.0 mg/kg/injection, schedule: Q01DX005 (ip), vehicle: gum acacia 96 % of control | dose: 400.0 mg/kg/injection, schedule: Q01DX009 (ip), vehicle: gum acacia 90 % of control

CC(C)N(CC#N)C(C)C
inactive: dose: 0.25 mg/kg/injection, schedule: Q01DX009 (ip), vehicle: saline with Tween-80 93 % of control | dose: 0.5 mg/kg/injection, schedule: Q01DX009 (ip), vehicle: saline with Tween-80 95 % of control

COc1cc(C=Nc2ccccc2C(=O)N/N=C/c2cc(OC)c(OC)c(OC)c2)cc(OC)c1OC
inactive: [2] 97 % of control | [10] 100 % of control | [4] 91 % of control

O=C1c2cscc2C(=O)c2c(Cl)sc(Cl)c21
inactive: dose: 100.0 mg/kg/injection, schedule: Q04DX003 (ip), vehicle: acetone 102 % of control

[O-]/[N+](=N/O)c1ccc(Cl)cc1
inactive: dose: 25.0 mg/kg/injection, schedule: Q01DX001 (ip), vehicle: saline with Tween-80 96 % of control | dose: 25.0 mg/kg/injection, schedule: Q01DX009 (ip), vehicle: saline with Tween-80 100 % of control | dose: 25.0 mg/kg/injection, schedule: Q04DX003 (ip), vehicle: saline with Tween-80 103 % of control | dose: 50.0 mg/kg/injection, schedule: Q01DX001 (ip), vehicle: saline with Tween-80 92 % of control | dose: 50.0 mg/kg/injection, schedule: Q01DX009 (ip), vehicle: saline with Tween-80 94 % of control | dose: 50.0 mg/kg/injection, schedule: Q04DX003 (ip), vehicle: saline with Tween-80 94 % of control | dose: 100.0 mg/kg/injection, schedule: Q01DX001 (ip), vehicle: saline with Tween-80 100 % of control | dose: 100.0 mg/kg/injection, schedule: Q04DX003 (ip), vehicle: saline with Tween-80 92 % of control

NP(=S)(Oc1ccc(Cl)cc1)Oc1ccc(Cl)cc1
inactive: dose: 6.25 mg/kg/injection, schedule: Q01DX009 (ip), vehicle: gum acacia 103 % of control | dose: 12.5 mg/kg/injection, schedule: Q01DX009 (ip), vehicle: gum acacia 110 % of control | dose: 12.5 mg/kg/injection, schedule: Q04DX002 (ip), vehicle: gum acacia 87 % of control | dose: 25.0 mg/kg/injection, schedule: Q01DX009 (ip), vehicle: gum acacia 100 % of control | dose: 25.0 mg/kg/injection, schedule: Q04DX002 (ip), vehicle: gum acacia 87 % of control | dose: 100.0 mg/kg/injection, schedule: Q04DX002 (ip), vehicle: saline 93 % of control | dose: 200.0 mg/kg/injection, schedule: Q04DX002 (ip), vehicle: saline 101 % of control | dose: 400.0 mg/kg/injection, schedule: Q04DX002 (ip), vehicle: saline 96 % of control

Nc1nc(N)c(-c2ccc(Cl)cc2)c(C(F)(F)F)n1
inactive: dose: 75.0 mg/kg/injection, schedule: Q01DX001 (ip), vehicle: saline with Tween-80 95 % of control | dose: 150.0 mg/kg/injection, schedule: Q01DX001 (ip), vehicle: saline with Tween-80 100 % of control | dose: 300.0 mg/kg/injection, schedule: Q01DX001 (ip), vehicle: saline with Tween-80 92 % of control

CC1CNC(=O)CC(C)O1 (stereo not drawn)
inactive: [11] 108 % of control | [12] 110 % of control | dose: 400.0 mg/kg/injection, schedule: Q04DX003 (ip), vehicle: saline 104 % of control

CC12CCC(/C(=N/O)C1=O)C2(C)C (stereo not drawn)
inactive: dose: 100.0 mg/kg/injection, schedule: Q04DX002 (ip), vehicle: Klucel (hydroxypropylcellulose) (HPC) 106 % of control | dose: 200.0 mg/kg/injection, schedule: Q04DX002 (ip), vehicle: Klucel (hydroxypropylcellulose) (HPC) 110 % of control | dose: 400.0 mg/kg/injection, schedule: Q04DX002 (ip), vehicle: Klucel (hydroxypropylcellulose) (HPC) 103 % of control

COC(=O)c1ccc(OC(=O)Nc2cc(Cl)ccc2C)cc1
inactive: [8] 106 % of control | [9] 89 % of control

O=[N+]([O-])c1cc(NS(=O)(=O)c2ccccc2)ccc1NS(=O)(=O)c1ccccc1
inactive: dose: 50.0 mg/kg/injection, schedule: Q01DX009 (ip), vehicle: Klucel (hydroxypropylcellulose) (HPC) 90 % of control | [1] 90 % of control | [2] 111 % of control | [3] 93 % of control | [10] 97 % of control | [4] 94 % of control

c1ccc(CCCC2CCCC2)cc1
inactive: [5] 94 % of control | dose: 75.0 mg/kg/injection, schedule: Q01DX009 (ip), vehicle: saline 106 % of control | [6] 96 % of control | dose: 150.0 mg/kg/injection, schedule: Q01DX009 (ip), vehicle: saline 108 % of control | [7] 97 % of control | dose: 300.0 mg/kg/injection, schedule: Q01DX009 (ip), vehicle: saline 106 % of control

CC(C)(C)SCCC(=O)NC1CCCCC1
inactive: dose: 50.0 mg/kg/injection, schedule: Q01DX009 (ip), vehicle: saline 90 % of control | dose: 100.0 mg/kg/injection, schedule: Q01DX009 (ip), vehicle: saline 95 % of control | [11] 106 % of control | dose: 200.0 mg/kg/injection, schedule: Q01DX009 (ip), vehicle: saline 93 % of control | [12] 101 % of control
